In PubChem BioAssay AID1963874 (Molecular Pharmacology Branch, DTP, NCI, 2024):
pIC50: −log10 of the molar value.

System: 253994-281-T-J1-PDC KRAS-mutant spheroids with HUVEC/MSC, viability
Test: Anticancer human tumor 253994-281-T-J1-PDC patient-derived colorectal carcinoma cell line growth inhibition [KRAS2]
Conditions: for pIC50: curve of first compound; for viability, T/C: stronger effect = lower value
Outline: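 KRAS-mutant tumor cells were grown as spheroids with HUVEC endothelial cells and human MSCs as stroma. Targeted agents were tested alone and with KRAS pathway inhibitors. Doses started at or near clinical Cmax, or 10 microM, descending half-log.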

[1] = second compound 0.1 µM, first compound 0.0316 µM
[2] = second compound 0.1 µM, first compound 0.1 µM
[3] = second compound 0.1 µM, first compound 0.316 µM
[4] = second compound 0.1 µM, first compound 1 µM
[5] = second compound 0.1 µM, first compound 3.16 µM
[6] = second compound 0.1 µM, first compound 10 µM
[7] = second compound 0.316 µM, first compound 0.0316 µM
[8] = second compound 0.316 µM, first compound 0.1 µM
[9] = second compound 0.316 µM, first compound 0.316 µM
[10] = second compound 0.316 µM, first compound 1 µM
[11] = second compound 0.316 µM, first compound 3.16 µM
[12] = second compound 0.316 µM, first compound 10 µM
[13] = second compound 1 µM, first compound 0.0316 µM
[14] = second compound 1 µM, first compound 0.1 µM
[15] = second compound 1 µM, first compound 0.316 µM
[16] = second compound 1 µM, first compound 1 µM
[17] = second compound 1 µM, first compound 3.16 µM
[18] = second compound 1 µM, first compound 10 µM
[19] = second compound 3.16 µM, first compound 0.0316 µM
[20] = second compound 3.16 µM, first compound 0.1 µM
[21] = second compound 3.16 µM, first compound 0.316 µM
[22] = second compound 3.16 µM, first compound 1 µM
[23] = second compound 3.16 µM, first compound 3.16 µM
[24] = second compound 3.16 µM, first compound 10 µM
[25] = second compound 10 µM, first compound 0.0316 µM
[26] = second compound 10 µM, first compound 0.1 µM
[27] = second compound 10 µM, first compound 0.316 µM
[28] = second compound 10 µM, first compound 1 µM
[29] = second compound 10 µM, first compound 3.16 µM
[30] = second compound 10 µM, first compound 10 µM
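Note: spheroids exposed to agents for seven days before readout.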
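Throughout, for viability, T/C: percent of DMSO vehicle control viability.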

Compound	pIC50 (second compound 0.1 µM)	pIC50 (second compound 0.316 µM)	pIC50 (second compound 1 µM)	pIC50 (second compound 3.16 µM)	pIC50 (second compound 10 µM)	viability, T/C [1] [%]	viability, T/C [2] [%]	viability, T/C [3] [%]	viability, T/C [4] [%]	viability, T/C [5] [%]	viability, T/C [6] [%]	viability, T/C [7] [%]	viability, T/C [8] [%]	viability, T/C [9] [%]	viability, T/C [13] [%]	viability, T/C [14] [%]	viability, T/C [19] [%]	viability, T/C [20] [%]	viability, T/C [25] [%]	viability, T/C [26] [%]	other results
CC(C)NCC(C(=O)N1CCN(c2ncnc3c2C(C)CC3O)CC1)c1ccc(Cl)cc1 (stereo not given) + COc1cc2nc(C)nc(NC(C)c3cc(N)cc(C(F)(F)F)c3)c2cc1OC1CCOC1	< 5.00	< 5.00	< 5.00	< 5.00	< 5.00	86.1	97.9	92.5	94.6	93	97.1	86.3	85.7	78.7	84.3	83.4	83.2	87.4	67.9	79.8	viability, T/C [10]: 87.6%; viability, T/C [11]: 82%; viability, T/C [12]: 90.2%; viability, T/C [15]: 94.1%; viability, T/C [16]: 86.2%; viability, T/C [17]: 92.4%; viability, T/C [18]: 96.4%; viability, T/C [21]: 85.9%; viability, T/C [22]: 94.2%; viability, T/C [23]: 92.3%; viability, T/C [24]: 74.7%; viability, T/C [27]: 85.5%; viability, T/C [28]: 79.5%; viability, T/C [29]: 71.2%; viability, T/C [30]: 83.7%
CC(C)n1nc(-c2ccc3oc(N)nc3c2)c2c(N)ncnc21 + COc1cc2nc(C)nc(NC(C)c3cc(N)cc(C(F)(F)F)c3)c2cc1OC1CCOC1	< 7.00	< 7.00	< 7.00	< 7.00	7.07	82.7	56.8	–	–	–	–	74.4	56.2	–	76.5	51	72.8	57.2	64.1	47.6	viability, T/C (second compound 0.1 µM, first compound 0.000316 µM): 82.7%; viability, T/C (second compound 0.1 µM, first compound 0.001 µM): 102%; viability, T/C (second compound 0.1 µM, first compound 0.00316 µM): 74.1%; viability, T/C (second compound 0.1 µM, first compound 0.01 µM): 87%; viability, T/C (second compound 0.316 µM, first compound 0.000316 µM): 86.4%; viability, T/C (second compound 0.316 µM, first compound 0.001 µM): 83.6%; viability, T/C (second compound 0.316 µM, first compound 0.00316 µM): 88%; viability, T/C (second compound 0.316 µM, first compound 0.01 µM): 79.3%; viability, T/C (second compound 1 µM, first compound 0.000316 µM): 90%; viability, T/C (second compound 1 µM, first compound 0.001 µM): 97.6%; viability, T/C (second compound 1 µM, first compound 0.00316 µM): 82%; viability, T/C (second compound 1 µM, first compound 0.01 µM): 82.7%; viability, T/C (second compound 3.16 µM, first compound 0.000316 µM): 81.9%; viability, T/C (second compound 3.16 µM, first compound 0.001 µM): 94.5%; viability, T/C (second compound 3.16 µM, first compound 0.00316 µM): 85.5%; viability, T/C (second compound 3.16 µM, first compound 0.01 µM): 82%; viability, T/C (second compound 10 µM, first compound 0.000316 µM): 78.5%; viability, T/C (second compound 10 µM, first compound 0.001 µM): 79.5%; viability, T/C (second compound 10 µM, first compound 0.00316 µM): 77.2%; viability, T/C (second compound 10 µM, first compound 0.01 µM): 79.5%
CC1(C)CCC(CN2CCN(c3ccc(C(=O)NS(=O)(=O)c4ccc(NCC5CCOCC5)c([N+](=O)[O-])c4)c(Oc4cnc5[nH]ccc5c4)c3)CC2)=C(c2ccc(Cl)cc2)C1 + COc1cc2nc(C)nc(NC(C)c3cc(N)cc(C(F)(F)F)c3)c2cc1OC1CCOC1	< 5.00	< 5.00	5.08	5.26	5.59	89	85.8	85.6	89.1	67.2	64.1	84.1	80	79.8	76.8	85.9	91.6	85.2	71.1	72	viability, T/C [10]: 83.5%; viability, T/C [11]: 75.2%; viability, T/C [12]: 53.3%; viability, T/C [15]: 82.5%; viability, T/C [16]: 78%; viability, T/C [17]: 64.7%; viability, T/C [18]: 47.1%; viability, T/C [21]: 81.7%; viability, T/C [22]: 82.2%; viability, T/C [23]: 55.2%; viability, T/C [24]: 44.3%; viability, T/C [27]: 74.4%; viability, T/C [28]: 61.6%; viability, T/C [29]: 47.8%; viability, T/C [30]: 24.4%
